This note sets out measurements from patent publication US8791148B2, “Substituted benzimidazolone derivatives, medicaments comprising them and their use” (AbbVie Deutschland GmbH & Co. KG, priority 2006, dated 2014).

The target in the test is T1, human vasopressin V1b receptor (Homo sapiens, UniProt P47901).
T1 construct: expressed in transfected cells; host or cells: CHO-K1 (cell line hV1b-3H2_CHO), membrane preparation
T1 sequence (P47901 1-424): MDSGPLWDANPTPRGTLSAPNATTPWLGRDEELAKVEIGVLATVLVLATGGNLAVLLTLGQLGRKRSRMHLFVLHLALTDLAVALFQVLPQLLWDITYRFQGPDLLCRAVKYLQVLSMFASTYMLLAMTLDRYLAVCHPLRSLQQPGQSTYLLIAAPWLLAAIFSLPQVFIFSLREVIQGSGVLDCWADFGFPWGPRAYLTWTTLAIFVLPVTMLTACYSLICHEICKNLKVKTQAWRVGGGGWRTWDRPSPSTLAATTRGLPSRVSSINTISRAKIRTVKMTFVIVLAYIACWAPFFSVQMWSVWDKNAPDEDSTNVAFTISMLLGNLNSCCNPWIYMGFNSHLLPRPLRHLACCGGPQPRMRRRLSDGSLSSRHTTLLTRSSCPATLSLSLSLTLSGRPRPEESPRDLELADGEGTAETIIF
The experiment in a line: Vasopressin V1b receptor binding assay. As to conditions: membranes from CHO-K1 cells with stably expressed human V1b receptors; displacement of 1.5 nM 3H-AVP; read-out: V1b receptor affinity (affinity constant Ki). The method, boiled down:
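Ki values come from nonlinear regression of triplicate scintillation counts after filtration. Test compound (2% DMSO in the mixture) and radioligand were incubated 60 min at room temperature with human V1b membranes in pH 7.4 Tris buffer with 10 mM MgCl2 and 0.1% BSA. Nonspecific binding was set with 1 uM AVP.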
Broadly, the Ki is the equilibrium dissociation constant of an inhibitor or competing ligand from its target. As to `COc1ccc(S(=O)(=O)n2c(=O)n(C(C(=O)N3CCN(C4CCCNC4)CC3)c3ccccc3)c3cc(Cl)ccc32)cc1` (centres unmarked) [Example 165, 5-Chloro-1-(4-methoxybenzenesulfonyl)-3-[2-oxo-1-phenyl-2-(4-piperidin-3-ylpiperazin-1-yl)ethyl]-1,3-dihydrobenzimidazol-2-one], the Ki was 500 to 10000 nM.

With `COc1ccc(S(=O)(=O)n2c(=O)n(C(C(=O)N3CCC(N)C3)c3ccccc3)c3cc(Cl)ccc32)cc1` (centres unmarked) [Example 166, 3-[2-(3-Aminopyrrolidin-1-yl)-2-oxo-1-phenylethyl]-5-chloro-1-(4-methoxybenzenesulfonyl)-1,3-dihydrobenzimidazol-2-one], the Ki lay within 100 to 500 nM.

`COc1ccc(S(=O)(=O)n2c(=O)n(C(C(=O)N3CCCC(N)C3)c3ccccc3)c3cc(Cl)ccc32)cc1` (centres unmarked) [Example 167, 3-[2-(3-Aminopiperidin-1-yl)-2-oxo-1-phenylethyl]-5-chloro-1-(4-methoxybenzenesulfonyl)-1,3-dihydrobenzimidazol-2-one]: the Ki was less than 100 nM.

Turning to `COc1ccc(S(=O)(=O)n2c(=O)n(C(C(=O)N3CC[C@H](N)C3)c3ccccc3)c3cc(Cl)ccc32)cc1` (stereo partly drawn) [Example 168, 3-[2-((S)-3-Aminopyrrolidin-1-yl)-2-oxo-1-phenylethyl]-5-chloro-1-(4-methoxybenzenesulfonyl)-1,3-dihydrobenzimidazol-2-one], the Ki lay within 100 to 500 nM.

Turning to `COc1ccc(S(=O)(=O)n2c(=O)n(C(C(=O)N3CC[C@@H](N)C3)c3ccccc3)c3cc(Cl)ccc32)cc1` (stereo partly drawn) [Example 169, 3-[2-((R)-3-Aminopyrrolidin-1-yl)-2-oxo-1-phenylethyl]-5-chloro-1-(4-methoxybenzenesulfonyl)-1,3-dihydrobenzimidazol-2-one], the Ki was in the range of 500 to 10000 nM.

As to `COc1ccc(S(=O)(=O)n2c(=O)n(C(C(=O)N3CCCC(N)C3)c3ccccc3)c3cc(C#N)ccc32)cc1` (centres unmarked) [Example 170, 3-[2-(3-Aminopiperidin-1-yl)-2-oxo-1-phenylethyl]-1-(4-methoxybenzenesulfonyl)-2-oxo-2,3-dihydro-1H-benzimidazole-5-carbonitrile], the Ki lay within 500 to 10000 nM.

Take `COc1ccc(S(=O)(=O)n2c(=O)n(C(C(=O)N3CC[C@H](N)C3)c3ccccc3)c3cc(C#N)ccc32)cc1` (stereo partly drawn) [Example 171, 3-[2-((S)-3-Aminopyrrolidin-1-yl)-2-oxo-1-phenylethyl]-1-(4-methoxybenzenesulfonyl)-2-oxo-2,3-dihydro-1H-benzimidazole-5-carbonitrile]: the Ki is 500 to 10000 nM.

`COc1ccc(S(=O)(=O)n2c(=O)n(C(C(=O)N3CC[C@@H](N)C3)c3ccccc3)c3cc(C#N)ccc32)cc1` (stereo partly drawn) [Example 172, 3-[2-((R)-3-Aminopyrrolidin-1-yl)-2-oxo-1-phenylethyl]-1-(4-methoxybenzenesulfonyl)-2-oxo-2,3-dihydro-1H-benzimidazole-5-carbonitrile]: the Ki was 500 to 10000 nM.

In the case of `COc1ccc(S(=O)(=O)n2c(=O)n(C(C(=O)N[C@H]3CCNC3)c3ccccc3)c3cc(Cl)ccc32)cc1` (stereo partly drawn) [Example 173, 2-[6-Chloro-3-(4-methoxybenzenesulfonyl)-2-oxo-2,3-dihydrobenzimidazol-1-yl]-2-phenyl-N—(S)-pyrrolidin-3-ylacetamide], the Ki lay within 500 to 10000 nM.

Regarding `COc1ccc(S(=O)(=O)n2c(=O)n(C(C(=O)N[C@@H]3CCNC3)c3ccccc3)c3cc(Cl)ccc32)cc1` (stereo partly drawn) [Example 174, 2-[6-Chloro-3-(4-methoxybenzenesulfonyl)-2-oxo-2,3-dihydrobenzimidazol-1-yl]-2-phenyl-N—(R)-pyrrolidin-3-ylacetamide], the Ki fell in the range of 500 to 10000 nM.

As for `COc1ccc(S(=O)(=O)n2c(=O)n(C(C(=O)N3CCC(NC4CCNCC4)C3)c3ccccc3)c3cc(Cl)ccc32)cc1` (centres unmarked) [Example 175, 5-Chloro-1-(4-methoxybenzenesulfonyl)-3-{2-oxo-1-phenyl-2-[3-(piperidin-4-ylamino)pyrrolidin-1-yl]ethyl}-1,3-dihydrobenzimidazol-2-one], the Ki was less than 100 nM.

Turning to `COc1ccc(S(=O)(=O)n2c(=O)n(C(C(=O)N3CC[C@@H](NC4CCNCC4)C3)c3ccccc3)c3cc(Cl)ccc32)cc1` (stereo partly drawn) [Example 176, 5-Chloro-1-(4-methoxybenzenesulfonyl)-3-{2-oxo-1-phenyl-2-[(R)-3-(piperidin-4-ylamino)pyrrolidin-1-yl]ethyl}-1,3-dihydrobenzimidazol-2-one], the Ki is less than 100 nM.

Regarding `COc1ccc(S(=O)(=O)n2c(=O)n(C(C(=O)N3CC[C@H](NC4CCNCC4)C3)c3ccccc3)c3cc(Cl)ccc32)cc1` (stereo partly drawn) [Example 177, 5-Chloro-1-(4-methoxybenzenesulfonyl)-3-{2-oxo-1-phenyl-2-[(S)-3-(piperidin-4-ylamino)pyrrolidin-1-yl]ethyl}-1,3-dihydrobenzimidazol-2-one], the Ki was less than 100 nM.

In the case of `COc1ccc(S(=O)(=O)n2c(=O)n(C(C(=O)N3CC[C@H](N4CCN(C(C)C)CC4)C3)c3ccccc3)c3cc(C#N)ccc32)cc1` (stereo partly drawn) [Example 189, 3-{2-[(S)-3-(4-Isopropylpiperazin-1-yl)pyrrolidin-1-yl]-2-oxo-1-phenylethyl}-1-(4-methoxybenzenesulfonyl)-2-oxo-2,3-dihydro-1H-benzimidazole-5-carbonitrile], the Ki was less than 100 nM.

Take `CCCN1CCN([C@H]2CCCN(C(=O)C(c3ccccc3)n3c(=O)n(S(=O)(=O)c4ccc(OC)cc4)c4ccc(C#N)cc43)C2)CC1` (stereo partly drawn) [Example 191, 1-(4-Methoxybenzenesulfonyl)-2-oxo-3-{2-oxo-1-phenyl-2-[(S)-3-(4-propylpiperazin-1-yl)piperidin-1-yl]ethyl}-2,3-dihydro-1H-benzimidazole-5-carbonitrile]: the Ki was less than 100 nM.

For the compound `COc1ccc(S(=O)(=O)n2c(=O)n(C(C(=O)N3CCC[C@H](N4CCN(C)CC4)C3)c3ccccc3)c3cc(C#N)ccc32)cc1` (stereo partly drawn) [Example 193, 1-(4-Methoxybenzenesulfonyl)-3-{2-[(S)-3-(4-methylpiperazin-1-yl)piperidin-1-yl]-2-oxo-1-phenylethyl}-2-oxo-2,3-dihydro-1H-benzimidazole-5-carbonitrile], the Ki was less than 100 nM.

`COc1ccc(S(=O)(=O)n2c(=O)n(C(C(=O)N3CCC[C@H](N4CCNCC4)C3)c3ccccc3)c3cc(C#N)ccc32)cc1` (stereo partly drawn) [Example 195, 1-(4-Methoxybenzenesulfonyl)-2-oxo-3-[2-oxo-1-phenyl-2-((S)-3-piperazin-1-ylpiperidin-1-yl)ethyl]-2,3-dihydro-1H-benzimidazole-5-carbonitrile]: the Ki was less than 100 nM.

Take `CCCN1CCN([C@H]2CCN(C(=O)C(c3ccccc3)n3c(=O)n(S(=O)(=O)c4ccc(OC)cc4OC)c4ccc(C#N)cc43)C2)CC1` (stereo partly drawn) [Example 199, 1-(2,4-Dimethoxybenzenesulfonyl)-2-oxo-3-{2-oxo-1-phenyl-2-[(S)-3-(4-propylpiperazin-1-yl)pyrrolidin-1-yl]ethyl}-2,3-dihydro-1H-benzimidazole-5-carbonitrile]: the Ki is less than 100 nM.

In the case of `CCCN1CCN([C@H]2CCN(C(=O)C(c3ccccc3)n3c(=O)n(S(=O)(=O)c4cccc5cccnc45)c4ccc(C#N)cc43)C2)CC1` (stereo partly drawn) [Example 200, 2-oxo-3-{2-oxo-1-phenyl-2-[(S)-3-(4-propylpiperazin-1-yl)pyrrolidin-1-yl]-ethyl}-1-(quinoline-8-sulfonyl)-2,3-dihydro-1H-benzimidazole-5-carbonitrile], the Ki was 500 to 10000 nM.

Turning to `CCCN1CCN([C@H]2CCN(C(=O)C(c3ccccc3)n3c(=O)n(S(=O)(=O)c4cccs4)c4ccc(C#N)cc43)C2)CC1` (stereo partly drawn) [Example 201, 2-oxo-3-{2-oxo-1-phenyl-2-[(S)-3-(4-propylpiperazin-1-yl)pyrrolidin-1-yl]-ethyl}-1-(thiophene-2-sulfonyl)-2,3-dihydro-1H-benzimidazole-5-carbonitrile], the Ki is 100 to 500 nM.

`CCCN1CCN([C@H]2CCN(C(=O)C(c3ccccc3)n3c(=O)n(S(=O)(=O)c4ccccc4)c4ccc(C#N)cc43)C2)CC1` (stereo partly drawn) [Example 202, 1-Benzenesulfonyl-2-oxo-3-{2-oxo-1-phenyl-2-[(S)-3-(4-propylpiperazin-1-yl)-pyrrolidin-1-yl]ethyl}-2,3-dihydro-1H-benzimidazole-5-carbonitrile]: the Ki was in the range of 100 to 500 nM.

In the case of `CCCN1CCN([C@H]2CCN(C(=O)C(c3ccccc3)n3c(=O)n(S(=O)(=O)c4ccsc4)c4ccc(C#N)cc43)C2)CC1` (stereo partly drawn) [Example 203, 2-oxo-3-{2-oxo-1-phenyl-2-[(S)-3-(4-propylpiperazin-1-yl)pyrrolidin-1-yl]-ethyl}-1-(thiophene-3-sulfonyl)-2,3-dihydro-1H-benzimidazole-5-carbonitrile], the Ki was less than 100 nM.

`CCCN1CCN([C@H]2CCN(C(=O)C(c3ccccc3)n3c(=O)n(S(=O)(=O)c4ccc(C)cn4)c4ccc(C#N)cc43)C2)CC1` (stereo partly drawn) [Example 204, 1-(5-Methylpyridine-2-sulfonyl)-2-oxo-3-{2-oxo-1-phenyl-2-[(S)-3-(4-propylpiperazin-1-yl)pyrrolidin-1-yl]ethyl}-2,3-dihydro-1H-benzimidazole-5-carbonitrile]: the Ki was 100 to 500 nM.
